ChEMBL document CHEMBL5550179, “Rutaecarpine-inspired scaffold-hopping strategy and Ullmann cross-coupling based synthetic approach: Identification of pyridopyrimidinone-indole based novel anticancer chemotypes” (Bioorg Med Chem, 2024)
The source made the active and inactive calls. The calls are words filed in the database; no cut-off is given here.

How the values were obtained:
[1] = biological target: Tubulin; assay: Inhibition of tubulin polymerization (unknown origin); type: protein-complex assay, Homo sapiens
[2] = tested on: MCF7; assay: Antiproliferative activity against human MCF7 cells; type: functional, cell-based
[3] = tested on: MCF7; assay: Antiproliferative activity against human MCF7 cells assessed as cell growth inhibition incubated for 48 hrs by MTT assay; type: functional, cell-based; conditions: for IC50: Homo sapiens, MCF7, 48 h
[4] = tested on: A549; assay: Antiproliferative activity against human A549 cells assessed as cell growth inhibition incubated for 48 hrs by MTT assay; type: functional, cell-based; conditions: A549, 48 h
[5] = tested on: HCT-116; assay: Antiproliferative activity against human HCT-116 cells assessed as cell growth inhibition incubated for 48 hrs by MTT assay; type: functional, cell-based; conditions: HCT-116, 48 h
[6] = Antiproliferative activity against human MCF-10A cells assessed as cell growth inhibition incubated for 48 hrs by MTT assay; type: toxicity, cell-based
[7] = Antiproliferative activity against human MCF-10A cells assessed as cell viability incubated for 48 hrs by MTT assay relative to control; type: toxicity, cell-based; design: concentration or dose not given beside the values; conditions: read-out: Activity
[8] = Selectivity index, ratio of IC50 for antiproliferative activity against human MCF-10A cells to IC50 for antiproliferative activity against human MCF7 cells; type: toxicity, cell-based; conditions: MCF-10A cells and MCF7 cells, read-out: Ratio IC50
[9] = tested on: HeLa; assay: Antiproliferative activity against human HeLa cells; type: functional, cell-based
[10] = tested on: A549; assay: Antiproliferative activity against human A549 cells; type: functional, cell-based
[11] = tested on: MGC-803; assay: Antiproliferative activity against human MGC-803 cells; type: functional, cell-based
[12] = tested on: SW480; assay: Antiproliferative activity against human SW480 cells; type: functional, cell-based
[13] = tested on: MCF7; assay: Antiproliferative activity against human MCF7 cells assessed as reduction in number of colonies incubated for 48 hrs by crystal violet staining based analysis; type: functional, cell-based
[14] = tested on: MCF7; assay: Inhibition of cell migration in human MCF7 cells assessed as reduction in migration rate incubated upto 48 hrs by scratch wound healing assay; type: functional, cell-based
[15] = tested on: NCI-H460; assay: Antiproliferative activity against human NCI-H460 cells; type: functional, cell-based
[16] = tested on: HL-60; assay: Antiproliferative activity against human HL-60 cells; type: functional, cell-based
[17] = tested on: MDA-MB-435; assay: Antiproliferative activity against human MDA-MB-435 cells; type: functional, cell-based
[18] = tested on: HCT-116; assay: Antiproliferative activity against human HCT-116 cells; type: functional, cell-based
[19] = tested on: ACHN; assay: Antiproliferative activity against human ACHN cells; type: functional, cell-based

COc1cc(C2=NN(C(N)=O)C(c3cn(C)c4ccc(Br)cc34)C2)cc(OC)c1OC (centres undefined)
IC50 [1]: 2.12 µM

O=c1cc(-c2ccc(Cl)cc2)nc2ccccn12
IC50 [2]: 1.8 µM

COc1ccc(C(=O)NCCc2c(-c3cc(=O)n4ccccc4n3)[nH]c3ccc(OC)cc23)cc1
IC50 [3]: > 20 µM

COc1ccc2c(c1)c(CCNC(=O)c1ccc(Cl)cc1)c(-c1cc(=O)n3ccccc3n1)n2C(=O)OC(C)(C)C
IC50 [3]: 14 µM | IC50 [4]: 20 µM | IC50 [5]: 8.55 µM | IC50 at 48 h [6]: > 20 µM | viability at 48 h [7]: 78.6% | selectivity ratio [8]: > 2.25

O=c1[nH]cc(F)c(=O)[nH]1 [FLUOROURACIL]
IC5 ([3]; time 48 hrs): 6.5 µM | IC50 [4]: > 20 µM | IC50 [5]: > 20 µM | IC50 at 48 h [6]: 19.5 µM | viability at 48 h [7]: 50% | selectivity ratio [8]: 3

O=c1c2cc(Cl)ccc2nc2n1CCc1c-2[nH]c2ccccc12
IC50 [9]: 7 µM

CN1c2ccccc2C(=O)N2CCc3c([nH]c4ccccc34)C21 (centres undefined)
IC50 [10]: 1.3 µM | IC50 [11]: 12 µM | IC50 [12]: 10 µM

COc1ccc(C(=O)NCCc2c(-c3cc(=O)n4ccccc4n3)n(C(=O)OC(C)(C)C)c3ccccc23)cc1
IC50 [3]: 7.7 µM | IC50 [4]: 18.4 µM | IC50 [5]: 11 µM | IC50 at 48 h [6]: > 20 µM | viability at 48 h [7]: 61.6% | selectivity ratio [8]: > 3.2 | Activity [13]: Active | inhibition [14]: Active

O=c1c2ccccc2nc2n1CCc1c-2[nH]c2ccccc12 [RUTAECARPINE]
IC50 [9]: 26 µM | IC50 [3]: > 20 µM | IC50 [4]: > 20 µM | IC50 at 48 h [6]: > 20 µM | viability at 48 h [7]: 60.2% | selectivity ratio [8]: 1.2

O=C(NCCc1c[nH]c2ccccc12)c1ccc(-c2ccccc2)cc1
IC50 [15]: 2 µM

O=c1c2ccccc2nc2n1CCc1c-2[nH]c2c(Cl)c(Cl)ccc12
IC50 [16]: 0.15 µM

COc1ccc2c(c1)c(CCN1C(=O)c3ccccc3C1=O)c(-c1cc(=O)n3ccccc3n1)n2C(=O)OC(C)(C)C
IC50 [3]: > 20 µM

O=C(NCCc1c(-c2cc(=O)n3ccccc3n2)[nH]c2ccccc12)c1ccc(Cl)cc1
IC50 [3]: > 20 µM

CC(C)(C)OC(=O)n1c(-c2cc(=O)n3ccccc3n2)c(CCNC(=O)c2ccc(Cl)cc2)c2ccccc21
IC50 [3]: 15.8 µM | IC50 [4]: > 20 µM | IC50 [5]: > 20 µM | IC50 at 48 h [6]: > 20 µM | viability at 48 h [7]: 83.4% | selectivity ratio [8]: > 2.11

COc1ccc2[nH]c(-c3cc(=O)n4ccccc4n3)c(CCNC(=O)c3cc(OC)c(OC)c(OC)c3)c2c1
IC50 [3]: > 20 µM

COc1ccc2[nH]c(-c3cc(=O)n4ccccc4n3)c(CCNC(=O)c3ccc(Cl)cc3)c2c1
IC50 [3]: > 20 µM

O=C1c2cc(Cl)ccc2SC2c3[nH]c4ccc(O)cc4c3CCN12 (centres undefined)
IC50 [17]: < 0.003 µM | IC50 [18]: < 0.003 µM

O=C1c2ccccc2C(=O)N1CCc1c(-c2cc(=O)n3ccccc3n2)[nH]c2ccccc12
IC50 [3]: > 20 µM

O=C(O)c1ccccc1C(=O)NCCc1c(-c2cc(=O)n3ccccc3n2)[nH]c2ccccc12
IC50 [3]: > 20 µM

CN1c2ccccc2C(=O)N2CCc3c([nH]c4ccc(Cl)cc34)C21 (centres undefined)
IC50 [2]: 1 µM | IC50 [19]: 1 µM

COc1ccc2[nH]c(-c3cc(=O)n4ccccc4n3)c(CCN3C(=O)c4ccccc4C3=O)c2c1
IC50 [3]: > 20 µM

CC(C)(C)OC(=O)n1c(-c2cc(=O)n3ccccc3n2)c(CCN2C(=O)c3ccccc3C2=O)c2ccccc21
IC50 [3]: > 20 µM

COc1cc(C(=O)NCCc2c(-c3cc(=O)n4ccccc4n3)[nH]c3ccccc23)cc(OC)c1OC
IC50 [3]: > 20 µM
